Measured values reported in ChEMBL document CHEMBL1139461, “Synthesis and characterization of the novel fluorescent prolyl oligopeptidase inhibitor 4-fluoresceinthiocarbamoyl-6-aminocaproyl-L-prolyl-2(S)-(hydroxyacetyl)pyrrolidine” (J Med Chem, 2005).

Molecular target: Prolyl endopeptidase (Sus scrofa, UniProt P23687)
Assay: Inhibition of pig brain POP

Chain of Prolyl endopeptidase (P23687 whole entry): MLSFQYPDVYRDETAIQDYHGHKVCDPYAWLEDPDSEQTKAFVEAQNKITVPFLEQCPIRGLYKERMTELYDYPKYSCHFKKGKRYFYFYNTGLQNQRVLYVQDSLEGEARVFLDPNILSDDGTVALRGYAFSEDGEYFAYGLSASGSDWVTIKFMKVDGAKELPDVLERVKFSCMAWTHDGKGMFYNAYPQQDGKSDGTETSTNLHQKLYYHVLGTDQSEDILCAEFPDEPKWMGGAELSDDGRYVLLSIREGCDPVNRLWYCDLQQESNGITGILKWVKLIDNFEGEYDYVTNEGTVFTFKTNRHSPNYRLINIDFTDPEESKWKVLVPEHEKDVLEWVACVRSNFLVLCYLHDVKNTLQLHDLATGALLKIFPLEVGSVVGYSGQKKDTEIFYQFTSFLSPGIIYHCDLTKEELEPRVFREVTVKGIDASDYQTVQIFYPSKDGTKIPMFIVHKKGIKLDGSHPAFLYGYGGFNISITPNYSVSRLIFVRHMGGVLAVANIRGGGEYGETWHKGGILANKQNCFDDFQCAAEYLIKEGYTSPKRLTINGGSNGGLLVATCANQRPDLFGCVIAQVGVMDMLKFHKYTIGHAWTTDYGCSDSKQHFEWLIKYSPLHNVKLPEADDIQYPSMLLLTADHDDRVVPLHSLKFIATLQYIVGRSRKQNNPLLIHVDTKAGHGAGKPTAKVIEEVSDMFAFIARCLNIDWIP

IC50	SMILES
180 nM	O=C1OC2(c3ccc(O)cc3Oc3cc(O)ccc32)c2ccc(NC(=S)NCC(=O)N3CCC[C@H]3C(=O)N3CCC[C@H]3C(=O)CO)cc21
0.83 nM	O=C1OC2(c3ccc(O)cc3Oc3cc(O)ccc32)c2ccc(NC(=S)NCCCCCC(=O)N3CCC[C@H]3C(=O)N3CCC[C@H]3C(=O)CO)cc21
